Reference: PMC7601839, “Anti-Acne Effects of Cembrene Diterpenoids from the Cultured Soft Coral Sinularia flexibilis” (Marine Drugs, 2020)

Key:
[1] = system: LPS-induced RAW 264.7 cells (NO production); experiment: NO production (Griess) in LPS-induced RAW 264.7 cells; type: cell-based; details: for inhibition at 20 µM / IC50: Mus musculus, RAW264.7, 24 h; for IC50: read-out: IC50 Value of NO Inhibition
Procedure: (§1) Anti-inflammatory effects were analyzed in RAW 264.7 cells, which were cultured in DMEM with 10% FBS, 1% L-glutamine, and 1% penicillin-streptomycin, and maintained at 37 °C in a 5% CO2 atmosphere. RAW 264.7 cells (4.0 × 10^5 cells/mL) were seeded in 96-well plates and co-treated with LPS (500 ng/mL) and test samples. After 24 h, NO production was determined by Griess reagent, and the absorption was detected at 530 nm. The percentage inhibition of NO production was presented as the anti-inflammatory activity. PGE2 concentrations in cell culture media were determined with a PGE2 enzyme-linked immunosorbent assay (ELISA) kit (Enzo Life Sciences, Farmingdale, NY, USA). The survival rate of RAW 264.7 cells was detected using an MTT assay.

[2] = Survival rate of RAW 264.7 cells by MTT assay; type: cell-based; details: mouse, LPS-induced RAW 264.7 cells, read-out: Cell Viability (%)
Procedure: as §1

[3] = system: LPS-induced RAW 264.7 cells (PGE2 production); experiment: PGE2 production (ELISA) in LPS-induced RAW 264.7 cells; type: cell-based; details: for inhibitory effect on prostaglandin E2 (PGE2) production: 24 h
Procedure: as §1

[4] = system: HKC-induced RAW 264.7 cells (NO production); experiment: NO production (Griess) in heat-killed C. acnes (HKC)-induced RAW 264.7 cells; type: cell-based; details: Mus musculus, RAW264.7, 24 h, read-out: IC50 Value of NO Inhibition
Procedure: (§2) C. acnes (4 × 10^8 cfu/mL) was heated at 80 °C for 30 min and killed. Heat-killed C. acnes (HKC) was freeze-dried as a powder and maintained at 4 °C until use. RAW 264.7 and HaCaT cells were cultured in DMEM with 10% FBS, 1% penicillin-streptomycin, and 1% L-glutamine at 37 °C in a 5% CO2 atmosphere. RAW 264.7 cells (4 × 10^5 cells/mL) and HaCaT cells (10^5 cells/mL) were seeded in six-well plates and co-treated with HKC (300 μg/mL) and test samples [24]. After 24 h, NO production was determined by adding the Griess reagent in the cell culture medium, and the absorption was measured in an ELISA reader at 530 nm. The sample culture medium was removed, and RAW 264.7 cells and HaCaT cells were washed with PBS.

p-ERK [5] = experiment: Western blot of p-ERK in LPS-induced RAW 264.7 cells; type: cell-based; details: 30 min, SC-2 2.5–20 μM, SC-7 5–40 μM, SC-9 2.5–20 μM
Procedure: (§3) Whole-cell lysates were prepared using radioimmunoprecipitation (RIPA) assay. Proteins in lysate samples (30 μg) were analyzed using 10% sodium dodecylsulfate-polyacrylamide gel electrophoresis (SDS-PAGE). Gels were transferred to nitrocellulose membranes and probed with primary iNOS (clone N-20), COX-2 (clone C-20), p-ERK (clone N-20), p-JNK (clone N-20), and glyceraldehyde-3-phosphate dehydrogenase (GAPDH; clone 6C5) antibodies (Santa Cruz Biotechnology, Santa Cruz, CA, USA). Membranes were visualized with a BCIP/NBT kit (Gibco BRL, Grand Island, NY, USA). Protein expression was quantified using the Azure Biosystem C300 Imaging System. GAPDH expression was used as an internal control to compare with protein expressions of iNOS, COX-2, p-ERK, and p-JNK [24].

p-JNK [6] = experiment: Western blot of p-JNK in LPS-induced RAW 264.7 cells; type: cell-based; details: 30 min, SC-2 2.5–20 μM, SC-7 5–40 μM, SC-9 2.5–20 μM
Procedure: as §3

COX-2 [7] = experiment: Western blot of COX-2 in LPS-induced RAW 264.7 cells; type: cell-based; details: 6 h and 24 h
Procedure: as §3

iNOS [8] = experiment: Western blot of iNOS in LPS-induced RAW 264.7 cells; type: cell-based; details: 24 h
Procedure: as §3

p-ERK [9] = experiment: Western blot of p-ERK in HKC-treated RAW 264.7 cells; type: cell-based; details: SC-2 2.5–20 μM, SC-7 5–40 μM, SC-9 2.5–20 μM
Procedure: as §3, §2

p-JNK [10] = experiment: Western blot of p-JNK in HKC-treated RAW 264.7 cells; type: cell-based; details: SC-2 2.5–20 μM, SC-7 5–40 μM, SC-9 2.5–20 μM
Procedure: as §3, §2

iNOS [11] = experiment: Western blot of iNOS in HKC-treated RAW 264.7 cells; type: cell-based
Procedure: as §3, §2

COX-2 [12] = experiment: Western blot of COX-2 in HKC-treated RAW 264.7 cells; type: cell-based
Procedure: as §3, §2

HaCaT cells = experiment: Cytotoxicity analysis in HaCaT cells; type: cell-based, human; details: for growth inhibition of HaCaT cells: at high doses
p-ERK [13] = experiment: Western blot of p-ERK in HKC-treated HaCaT cells; type: cell-based, human; details: 30 min after HKC induction
Procedure: as §3, §2

[14] = system: Testosterone-induced HaCaT cells; experiment: Anti-proliferative activity in testosterone-treated HaCaT cells (MTT); type: cell-based, human; details: for testosterone-induced HaCaT cell proliferation: SC-2 1.25–5, SC-7 2.5–10, SC-9 0.08–0.32 μM, 48 h
Procedure: (§4) HaCaT cells (10^5 cells/mL) were seeded in 96-well plates and co-treated with testosterone (5 μg/mL) or DHT (5 μg/mL) and test samples with no cytotoxicity for 48 h. Cell proliferative activity was detected by an MTT assay.

[15] = system: Dihydrotestosterone-induced HaCaT cells; experiment: Anti-proliferative activity in dihydrotestosterone-treated HaCaT cells (MTT); type: cell-based, human; details: for keratinocyte over-proliferation by DHT: HaCaT keratinocytes
Procedure: as §4

iNOS [16] = system: iNOS; parameters: method as in PMID 23774887; details: LPS-stimulated RAW264.7 macrophage cells; cited from earlier work
COX-2 [17] = system: COX-2; parameters: method as in PMID 23774887; details: LPS-stimulated RAW264.7 macrophage cells; cited from earlier work
[18] = Homo sapiens, testosterone-induced HaCaT cells
[19] = Homo sapiens, dihydrotestosterone-induced HaCaT cells

Molecule	inhibition at 20 µM [1] [%]	IC50 [1] [µM]	viability at 24 h, 20 µM [2] [%]	inhibitory effect on prostaglandin E2 (PGE2) production [3]	IC50 [4] [µM]	p-ERK protein expression (p-ERK [5])	p-JNK protein expression (p-JNK [6])	COX-2 protein expression (COX-2 [7])	iNOS protein expression (iNOS [8])	p-ERK expression (p-ERK [9])	p-JNK expression (p-JNK [10])	iNOS expression (iNOS [11])	COX-2 expression (COX-2 [12])	concentrations with no cytotoxicity to HaCaT cells (HaCaT cells) [nM]	p-ERK protein expression (p-ERK [13])	testosterone-induced HaCaT cell proliferation [14]	keratinocyte over-proliferation by DHT [15]	accumulation of the proinflammatory iNOS protein (iNOS [16])	accumulation of COX-2 protein (COX-2 [17])	other results
C=C1C(=O)O[C@@H]2C[C@H]1CC[C@]1(C)O[C@H]1CC/C(C)=C/CC[C@]2(C)O [SC-9, sinularin]	102 ± 1.4	3.85 ± 0.25	98.9	no inhibitory effect	2.81 ± 0.2	dose-dependent inhibitory effects	dose-dependent inhibitory effects	more significant COX-2 inhibitory effects at 6 h than that at 24 h	decreased iNOS protein expression	good inhibitory effects	good inhibitory effects	significant inhibitory effects	no changes	312 to 2500	significant inhibitory effects	significantly decreased	inhibited keratinocyte over-proliferation	–	–	IC50 ([3]; Mus musculus, RAW264.7, 6 h, read-out: IC50 Value of PGE2 Inhibition): 6.22 µM; growth inhibition of HaCaT cells (HaCaT cells): caused growth inhibition; inhibition at 0.08 µM ([14]; Homo sapiens, testosterone-induced HaCaT cells, 0.08 μM): 6.5 ± 0.5%; inhibition at 0.16 µM ([14]; Homo sapiens, testosterone-induced HaCaT cells, 0.16 μM): 11.5 ± 1.3%; inhibition at 0.32 µM ([14]; Homo sapiens, testosterone-induced HaCaT cells, 0.32 μM): 19.1 ± 1.3%; inhibition at 0.08 µM ([15]; Homo sapiens, dihydrotestosterone-induced HaCaT cells, 0.08 μM): 8.5 ± 0.7%; inhibition at 0.16 µM ([15]; Homo sapiens, dihydrotestosterone-induced HaCaT cells, 0.16 μM): 16 ± 0.7%; inhibition at 0.32 µM ([15]; Homo sapiens, dihydrotestosterone-induced HaCaT cells, 0.32 μM): 18 ± 3.1%
flexibilisolides C	–	–	–	–	–	–	–	–	–	–	–	–	–	–	–	–	–	significantly inhibit	could reduce	–
C=C1C(=O)O[C@]2(C)CC[C@@H]1C[C@@H]1O[C@@]1(C)C/C=C/[C@@](C)(OO)CCC2=O [flexilarin D]	–	–	–	–	–	–	–	–	–	–	–	–	–	–	–	–	–	significantly inhibit	–	–
C=C1C(=O)O[C@]2(C)CC[C@@H]1C[C@@H]1O[C@@]1(C)CC/C=C(\C)CC[C@H]2O [11-epi-sinulariolide]	–	–	–	–	–	–	–	–	–	–	–	–	–	–	–	–	–	significantly inhibit	could reduce	–
C=C1C(=O)OC2(C)CCC1CC1OC1(C)CCC(OC(C)=O)C1(C)CCC2O1 (stereo not drawn) [SC-7, 3,4:8,11-bisepoxy-7-acetoxycembra-15(17)-en-1,12-olide]	50.2 ± 5.5	15.2 ± 0.25	96.1 ± 8.4	no inhibitory effect	7.42 ± 0.4	dose-dependent inhibitory effects	dose-dependent inhibitory effects	did not present identical COX-2 inhibitory effects	decreased iNOS protein expression	good inhibitory effects	good inhibitory effects	significant inhibitory effects	no changes	5000 to 40000	significant inhibitory effects	significantly decreased	inhibited keratinocyte over-proliferation	significantly inhibit	–	inhibition at 2.5 µM [14, 18]: 13.2 ± 0.7%; inhibition at 5 µM [14, 18]: 14 ± 2%; inhibition at 10 µM ([14]; Homo sapiens, testosterone-induced HaCaT cells, 10 μM): 20.8 ± 0.9%; inhibition at 2.5 µM [15, 19]: 9.5 ± 3.2%; inhibition at 5 µM [15, 19]: 13.1 ± 2.9%; inhibition at 10 µM ([15]; Homo sapiens, dihydrotestosterone-induced HaCaT cells, 10 μM): 13.8 ± 0.8%
C=C(C(=O)O)[C@@H]1CC[C@@](C)(O)[C@@H]2CC[C@@](C)(O2)[C@@H](OC(C)=O)CC[C@]2(C)O[C@H]2C1 [SC-6, dendronpholide F]	-15.1	–	96.1 ± 0.4	–	–	–	–	–	–	–	–	–	–	–	–	–	–	–	–	inhibitory effects on NO expression [1]: no inhibitory effects
C=C1C(=O)OC2(C)CCC1CC1OC1(C)CCC=C(C)CCC2=O (stereo not drawn) [SC-2, 11-dehydrosinulariolide]	92.4 ± 3	5.66 ± 0.19	102 ± 9.4	no inhibitory effect	5.81 ± 0.4	dose-dependent inhibitory effects	dose-dependent inhibitory effects	did not present identical COX-2 inhibitory effects	decreased iNOS protein expression	good inhibitory effects	good inhibitory effects	significant inhibitory effects	no changes	1250 to 10000	significant inhibitory effects	significantly decreased	inhibited keratinocyte over-proliferation	significantly inhibit	could reduce	growth inhibition of HaCaT cells (HaCaT cells): caused growth inhibition; inhibition at 1.25 µM ([14]; Homo sapiens, testosterone-induced HaCaT cells, 1.25 μM): 11.9 ± 5.5%; inhibition at 2.5 µM [14, 18]: 13.5 ± 1.1%; inhibition at 5 µM [14, 18]: 17.4 ± 2.8%; inhibition at 1.25 µM ([15]; Homo sapiens, dihydrotestosterone-induced HaCaT cells, 1.25 μM): 10.6 ± 3%; inhibition at 2.5 µM [15, 19]: 12.3 ± 3.1%; inhibition at 5 µM [15, 19]: 16.8 ± 4%
C/C1=C\CC[C@](C)(O)[C@H]2C[C@@H](CC[C@]3(C)O[C@H]3CC1)[C@H](C)C(=O)O2 [SC-10, dihydrosinularin]	28.2 ± 4.6	–	117 ± 1.9	–	–	–	–	–	–	–	–	–	–	–	–	–	–	–	–	inhibitory effects on NO expression [1]: no inhibitory effects
flexibilisolides D	–	–	–	–	–	–	–	–	–	–	–	–	–	–	–	–	–	significantly inhibit	–	–
